Assay results from PubChem BioAssay AID1996.
≈ marks a conversion by molar mass, not a printed value.

Conditions: buffer; pH 7.4; 200.0 µM

Row | Structure (SMILES) | solubility kinetic [µg/mL]
1 | CC(C)c1ccc(N2C(=O)C(Cl)=C(N3CCOCC3)C2=O)cc1 | 9.2 (≈ 27.5 µM)
2 | C=C(C)n1c(=O)n(Cc2ccc(C)cc2)c2ccccc21 | 16.3 (≈ 58.6 µM)
3 | CNc1nc(N)c([N+](=O)[O-])c(NCC2CCCO2)n1 (stereo not given) | > 40.2
4 | COC(=O)c1cc(S(=O)(=O)N(C)Cc2ccco2)c[nH]1 | > 44.7
5 | COc1ncnc2c1ncn2CC1COC(C)(C)O1 (stereo not given) | 34.9 (≈ 132 µM)
6 | CC(NC(N)=O)C(=O)NCC(=O)OCc1ccccc1 (stereo not given) | > 41.9
7 | O=C(CCl)N(c1ccccc1)C1CCCCC1 | 36.6 (≈ 145 µM)
8 | CC(NC(=O)/C(C#N)=C/c1ccc(OCC(=O)O)cc1)c1ccccc1 (stereo not given) | 50.8 (≈ 145 µM)
9 | COc1cccc(C(=O)Nc2cc(Cl)c(O)c(Cl)c2)c1 | 15 (≈ 48.1 µM)
10 | COc1cc(/C=C/c2ccc3cccc(O)c3n2)cc(OC)c1OC | < 0.7
11 | O=C(COC(=O)/C=C/c1ccc(S(=O)(=O)N2CCOCC2)cc1)Nc1ccc(F)c(F)c1F | 11.6 (≈ 23.9 µM)
12 | O=C(NCCN1CCCCC1)Nc1cccc(F)c1 | > 39.8
13 | N#C/C(=C\c1cccc([N+](=O)[O-])c1)c1ccccn1 | 3.6 (≈ 14.3 µM)
14 | Cc1ccc(CNc2nc(N)c([N+](=O)[O-])c(NCCO)n2)cc1 | 43.4 (≈ 136 µM)
15 | N#Cc1ccc(NC(=O)Cn2cnc([N+](=O)[O-])c2)cc1 | 37.4 (≈ 138 µM)
16 | Cc1cc(NC(=O)COC(=O)CNS(=O)(=O)c2c(F)cc(F)cc2Br)no1 | > 70.2
17 | O=C(O)C1=NN(c2c(F)c(F)cc(F)c2F)C(=O)CC1 | > 43.5
18 | COc1ccc(C(=O)c2ccccc2)c(OCC(=O)NC2CC2)c1 | 31.5 (≈ 96.8 µM)
19 | O=C1NC(=O)N(c2ccccc2)C1=O | > 28.5
20 | O=C(O)c1ccccc1Nc1ccc([N+](=O)[O-])c2nonc12 | 29.5 (≈ 98.3 µM)

Row | Structure (SMILES) | solubility kinetic [µg/mL]
21 | O=C1N(Cc2ccccc2)c2ccc(Cl)cc2C12OCCO2 | 9 (≈ 28.5 µM)
22 | CCc1ccc(OCCn2ccnc2)cc1 | 19.7 (≈ 91.1 µM)
23 | O=S(=O)(Nc1ccc(C(F)(F)F)cc1)c1cccs1 | 45.1 (≈ 147 µM)
24 | Cc1cnc(C(=O)OCC(=O)N=c2sccn2Cc2ccccc2Cl)cn1 | 55.2 (≈ 137 µM)
25 | Cc1oc(S(=O)(=O)N2CCCC2)cc1C(=O)Nc1ccccc1 | 4.3 (≈ 12.9 µM)
26 | N#CC1CN(Cc2ccccc2)CN(Cc2ccccc2)C1 | 32.9 (≈ 113 µM)
27 | O=C(Nc1ccncc1)c1ccc(Cl)cc1 | > 34.9
28 | NC(=[NH2+])SCC1=CCS(=O)(=O)C1.[Br-] | 39.4
29 | COc1ccc(C(=O)Nc2cc(C)c(NC(=O)c3ccccn3)cn2)cc1 | 1.9 (≈ 5.24 µM)
30 | CNC(=S)NNC(=O)Cc1ccc(OC)cc1 | > 38
31 | CC1(c2ccccc2)NC(=O)N(CC#N)C1=O (stereo not given) | 34.3 (≈ 150 µM)
32 | O=C1Nc2ccccc2OCc2c1cccc2[N+](=O)[O-] | 3.9 (≈ 14.4 µM)
33 | COc1ccc(OC)c(NC(=O)COC(=O)CCCN=C2NS(=O)(=O)c3ccccc32)c1 | 6.4 (≈ 13.9 µM)
34 | COCCSc1ccccc1C(=O)N1CCc2ccccc2C1 | > 49.1
35 | Cc1c(Cl)cccc1NC(=O)CC(Cc1ccccc1)C(=O)O (stereo not given) | > 49.8
36 | Cc1cc(NC(=O)CSc2ccc(F)cc2)no1 | > 39.9
37 | COc1ccc(Oc2ccccc2C#N)cc1 | 9.9 (≈ 44 µM)
38 | O=C(NC1CCCCC1)C1CCN(c2ncccn2)CC1 | > 43.3
39 | CCOc1ccc(OCCC(=O)OCC(=O)NCc2ccccc2)cc1 | 46.3 (≈ 130 µM)
40 | Cc1ccc(S(=O)(=O)c2nc(-c3ccccc3Cl)oc2N2CCN(C)CC2)cc1 | 25.2 (≈ 58.3 µM)

Row | Structure (SMILES) | solubility kinetic [µg/mL]
41 | O=C(CCSCc1ccccc1Cl)NC1CCCCC1 | 8.1 (≈ 26 µM)
42 | CC1(C)c2ccccc2-n2c1cc1oc(=O)cc(O)c1c2=O | 35.6 (≈ 121 µM)
43 | CCC1=C(C)CN(C(=O)NCCc2ccc(S(=O)(=O)NC(=O)NC3CCC(C)CC3)cc2)C1=O (stereo not given) | > 73.6
44 | Nn1c(Nc2ccc(Cl)cc2)nncc1=O | > 35.6
45 | COc1ccc(NC(=O)CCC(=O)N2CCOCC2)c([N+](=O)[O-])c1 | > 50.6
46 | CCOC(=O)C(CC)Sc1cc(C)nc2ccc(OC)cc12 (stereo not given) | 34.8 (≈ 109 µM)
47 | O=C(O)Cc1ccc(NC(=O)Nc2cccc3ccccc23)cc1 | 45.1 (≈ 141 µM)
48 | CC(C)(CNC(=O)c1ccccc1F)CNC(=O)c1ccccc1F | 51.6 (≈ 149 µM)
49 | COc1ccc(N=C2NC(=O)/C(=C\c3ccco3)S2)cc1 | 2.6 (≈ 8.66 µM)
50 | Cc1ccc(NC(=O)CCCC2CCCCC2)c(O)c1 | < 0.6
51 | COc1ccc(CCNC(=O)COC(=O)Cc2ccccc2[N+](=O)[O-])cc1 | > 55.9
52 | Cc1c(Cl)cnc(NC(=O)COC(=O)CNC(=O)c2ccccc2)c1Cl | 52.3 (≈ 132 µM)
53 | O=C(COC(=O)Cn1cnc2ccccc21)Nc1ccc(OC(F)F)cc1 | > 56.3
54 | CC1(C)CC(=O)N(c2cc(Cl)ccc2Cl)C(=O)C1 | 14.7 (≈ 51.4 µM)
55 | N#CCc1nc2ccccc2c(=O)[nH]1 | > 27.8
56 | CC(CN1CCOCC1)OC(=O)c1cccc(Cl)c1.Cl (stereo not given) | 43.2
57 | Cc1nc(N2CCOCC2)nc(Oc2ccccc2F)c1[N+](=O)[O-] | 1.5 (≈ 4.49 µM)
58 | COc1ccc(S(=O)(=O)N2CCCC2)cc1Br | 33.9 (≈ 106 µM)
59 | COc1ccc(CCNS(=O)(=O)c2ccc3[nH]c(=O)[nH]c3c2)cc1 | 11.3 (≈ 32.5 µM)
60 | Cc1cc(N(C)C)nc(Nc2ccccc2)n1 | > 34.2
